# Experimental data as given in article PMC8243516, “Inhibition of lysosomal phospholipase A2 predicts drug-induced phospholipidosis” (Journal of Lipid Research, 2021).
# Several values for one entry are separate records, joined by “and”; a condition that tells them apart may be missing. Equal entries are not always repeated. Where two headings read alike, the source gives them in different places.
# What was measured:
# [1] = biological target: T1, recombinant mouse LPLA2 (PLA2G15) (Mus musculus, UniProt Q8VEB4); experiment: Transacylase activity of LPLA2 (1-O-acyl-N-acetylsphingosine synthase, cell-free liposome assay); format: biochemical; conditions: for IC50: 1-O-acyl N-acetylsphingosine synthase activity, pH 4.5, DOPC/sulfatide liposomes, read-out: LPLA2 IC50; for LPLA2 inhibition (in words): acyl transferase activity
# T1 construct: purchased Proteos Inc. (Kalamazoo, MI)
# T1 sequence (Q8VEB4 34-412): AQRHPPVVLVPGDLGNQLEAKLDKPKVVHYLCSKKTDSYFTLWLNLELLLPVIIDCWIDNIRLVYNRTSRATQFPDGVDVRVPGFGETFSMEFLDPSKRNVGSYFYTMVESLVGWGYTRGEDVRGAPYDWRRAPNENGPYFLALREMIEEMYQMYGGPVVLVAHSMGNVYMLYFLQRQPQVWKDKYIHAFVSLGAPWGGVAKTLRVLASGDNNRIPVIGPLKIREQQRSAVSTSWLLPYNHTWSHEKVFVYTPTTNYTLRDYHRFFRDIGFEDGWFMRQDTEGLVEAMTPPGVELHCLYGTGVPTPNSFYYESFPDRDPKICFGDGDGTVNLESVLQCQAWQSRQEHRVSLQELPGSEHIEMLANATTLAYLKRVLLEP
# LPLA2 = biological target: T2, LPLA2 (Mus musculus, UniProt Q8VEB4); experiment: LPLA2 thermal stability measurement (SYPRO Orange Tm); format: binding
# T2 construct: purchased Proteos Inc. (Kalamazoo, MI)
# T2 sequence (Q8VEB4 34-412): T1 sequence (Q8VEB4 34-412)
# [2] = ref Pubchem and chEMBL databases; cited from earlier work
# phospholipidosis = phospholipidosis reported in vitro; Refs of Table 1; cited from earlier work
Structure (SMILES),IC50 [1] [µM],"(ΔTm)c-(ΔTm)d, difference in melting temperature of LPLA2 alone or in the presence of drug (LPLA2; N=3 ± SD)",pKa (basic) [2],In Vitro PLD (phospholipidosis),LPLA2 inhibition (in words) [1],"(ΔTm)c-(ΔTm)d, difference in melting temperature of LPLA2 alone or in the presence of drug (LPLA2) [°C]"
"CC(CN(C)C)CN1c2ccccc2CCc2ccccc21 (stereo not drawn) [Trimipramine, (3-{2-azatricyclo[9.4.0.0³,^8]pentadeca-1(15),3,5,7,11, 13-hexaen-2-yl}-2-methylpropyl)dimethylamine]",268,0.56 ± 0.0 °C,9.42,Yes,,
"Cc1nc2ccccn2c(=O)c1CCN1CCC(C(=O)c2ccc(F)cc2)CC1 [Pirenperone, 3-[2-[4-(4-Fluorobenzoyl)-1-piperidinyl]ethyl]-2-methyl-4H-pyrido-[1,2-a] pyrimidin-4-one]",233,0.79 ± 0.0 °C and 0.79 ± 0.1 °C,8.02,Yes,,
"CC(C)NCC(O)COc1ccc(CCOCC2CC2)cc1 (stereo not drawn) [Betaxolol, 1-{4-[2-(cyclopropylmethoxy)ethyl]phenoxy}-3-[(propan-2-yl)amino]propan-2-ol]",,-1.29 ± 0.9 °C,9.67,Yes,no inhibitory activity,
"Clc1ccc(C(OCCN2CCCCC2)c2ccccc2)cc1 (stereo not drawn) [Cloperastin, 1-{2-[(4-chlorophenyl) (phenyl)methoxy]ethyl} piperidine]",40.9,0 °C,8.82,Yes,,
"CCN(CC)CCOC(=O)C(c1ccccc1)C1CCCCC1 (stereo not drawn) [Drofenine, hexahydroadiphenine]",7.29,1.50 ± 0.1 °C,9.21,Yes,,
"CC(=O)[C@H]1CC[C@H]2[C@@H]3CCC4=CC(=O)CC[C@]4(C)[C@H]3CC[C@]12C [Progesterone, (1S,3aS,3bS,9aR,9bS,11aS)-1-acetyl-9a,11a-dimethyl-1H,2H,3H, 3aH,3bH,4H,5H, 7H,8H,9H,9 aH,9bH, 10H,11H,11aH-cyclopenta [a] phenanthren-7-one]",10.5,0.61 ± 0.1 °C,-4.8,Yes,,
"CN(C)CCC(c1ccc(Cl)cc1)c1ccccn1 (stereo not drawn) [Chlorpheniramine, [3-(4-chlorophenyl)-3-(pyridin-2-yl)propyl] dimethylamine]",147,0.34 ± 0.0 °C,9.47,Yes,,
"C[C@]12C[C@H](O)[C@H]3[C@@H](CCC4=CC(=O)CC[C@@]43C)[C@@H]1CC[C@@H]2C(=O)CO [Corticosterone, (1S,2R,10S,11S,14S,15S,17S)-17-hydroxy-14-(2-hydroxyacetyl)-2,15-dimethyltetracyclo[8.7.0.0^2,^7.0^11,^15]heptadec-6-en-5-one]",163,0 °C,-0.26,Yes,,
"CN(C)CCOC(=O)C(c1ccccc1)C1(O)CCCC1 (stereo not drawn) [Cyclopentolate, 2-(dimethylamino)ethyl 2-(1-hydroxycyclopentyl)-2-phenylacetate]",32.2,0.87 ± 0.6 °C,8.42,Yes,,
"O=C(O)c1ccccc1Nc1cccc(C(F)(F)F)c1 [Flufenamic acid, 2-{[3-(trifluoromethyl)phenyl]amino}benzoic acid]",178,-0.62 ± 0.3 °C,-2.1,Yes,,
"COc1ccnc(C[S+]([O-])c2nc3ccc(OC(F)F)cc3[nH]2)c1OC (stereo not drawn) [Pantoprazole, 6-(difluoromethoxy)-2-[(3,4-dimethoxypyridin-2-yl)methanesulfinyl] -1H-1,3-benzodiazole]",6.23,0.25 ± 0.1 °C,3.55,Yes,,
"CCOC(=O)c1cncn1[C@H](C)c1ccccc1 [Etomidate, ethyl 1-[(1R)-1-phenylethyl]-1H-imidazole-5-carboxylate]",1150,-0.76 ± 0.3 °C,4.54,Yes,,
"COc1cc2nc(N3CCN(C(=O)c4ccco4)C4CCCCC43)nc(N)c2cc1OC (stereo not drawn) [Cyclazosin, 1-(4-amino-6,7-dimethoxy-2-quinazolinyl)-4-(2-furanylcarbonyl) decahydroquinoxaline]",30.8,0.18 ± 0.1 °C,9.89,Yes,,
"O=c1[nH]c2ccccc2n1C1CCN(CCCC(c2ccc(F)cc2)c2ccc(F)cc2)CC1 [Pimozide, 1-{1-[4,4-bis(4-fluorophenyl)butyl]piperidin-4-yl}-2,3-dihydro-1H-1,3-benzodiazol-2-one]",10.6,,8.38,Yes,,0.26 ± 0.0
"CN(CCCN1c2ccccc2CCc2ccccc21)CC(=O)c1ccc(Cl)cc1 [Lofepramine, 2-[(3-{2-azatricyclo[9.4.0.0ˆ{3,8}]pentadeca-1(15),3,5,7,11,13-hexaen-2-yl}propyl) (methyl)amino]-1-(4-chlorophenyl) ethan-1-one]",13.2,0 °C,6.53,Yes,,
"CC(=O)N1CCN(c2ccc(OCC3COC(Cn4ccnc4)(c4ccc(Cl)cc4Cl)O3)cc2)CC1 (stereo not drawn) [Ketoconazole, 1-[4-(4-{[2-(2,4-dichlorophenyl)-2-(1H-imidazole-1-ylmethyl)-1,3-dioxolan-4-yl]methoxy}phenyl)piperazin-1-yl]ethan-1-one]",39,0.42 ± 0.8 °C,6.75,Yes,,
"COc1ccc(CN(CCN(C)C)c2ccccn2)cc1 [Pyrilamine, N-[2-(dimethylamino)ethyl]-N-[(4-methoxyphenyl)methyl]pyridin-2-amine]",214,0 °C,8.76,Yes,,
"OC[C@@H](O)[C@@H](O)[C@H](O)[C@H](O)CO [Mannitol, (2R,3R,4R,5R)-hexane-1,2,3,4,5,6-hexol]",160,1.0 ± 0.0 °C,12.3,Yes,,
"CCCOc1ccc(C(=O)OCCN(CC)CC)cc1N [Proparacaine, 2-(diethylamino)ethyl 3-amino-4-propoxybenzoate]",2470,0 °C,8.56,Yes,millimolar concentrations,
"CCOc1cc(CC(=O)NC(CC(C)C)c2ccccc2N2CCCCC2)ccc1C(=O)O (stereo not drawn) [Repaglinide, 2-ethoxy-4-[2-({3-methyl-1-[2-(1-piperidinyl)phenyl]butyl}amino)-2-oxoethyl]benzoic acid]",86.5,-0.84 ± 1.5 °C,4.28,Yes,,
